Source: patent publication US4120951A, “Polypeptide hormones of the thymus” (Sloan-Kettering Institute for Cancer Research, priority 1977, dated 1978)
Ends that are not written are not given here.

Columns and labels:
mouse bone marrow cells = assay: Cytotoxic inhibition test for induction of TL and Thy-1 antigens; type: cell-based; settings: for absorption of antibodies directed against TL or Thy-1 by treated cells: unfractionated bone marrow cells, 100 ng/ml, 18 hours
Method: Thymin I and Thymin II were isolated from bovine thymus as described. Each was dissolved in phosphate buffered saline (containing 1 mg/ml of bovine serum albumen to minimize adsorbtive losses), distributed into 2 μg lots and lyophilized. Each polypeptide was reconstituted in tissue culture medium at the desired concentrations just prior to use.
(§1) Bone marrow cells were obtained from the femoral marrow. Both spleen and marrow cells were teased into single cell suspensions and washed three times in RPMI 1640 medium supplemented with 10 mM Hepes and 100 U/ml of penicillin and 100 μg/ml of streptomycin. The cells were then suspended in the same medium with 10% bovine serum at a concentration of 5.0×10^6 cells/ml. One milliliter of this suspension was incubated with an appropriate dilution of thymin in 16 mm plastic petrie dishes in a humidified atmosphere containing 5% CO2 in air. At the end of the incubation the cells were washed twice and held at 4° C. at a concentration of 5.0×10^6 cells/ml in culture medium until tested for the presence of TL or Thy-1(0).
ASL-1, a TL positive, Thy 1-2 (0-C3H) positive lymphoma of A strain mice was used as the target cell in all titrations of the antisera used in these experiments, and in the cytotoxic inhibition test to be described below. The lymophoma was maintained by weekly intraperitoneal passage in A/J mice. Lymphoma cells were labelled with Cr^51 and used as target cells in the cytotoxic inhibition test.
Antisera to either TL or Thy-1 (0) were titered to determine the quantity of antibody which was required to kill 50% of the target cells in a standard suspension. The appropriate amount of antiserum was added to each well of a microtiter plate with various dilutions of the cells being tested for their antigen content. The total volume was 0.15 ml. Cells expressing the antigen against which the antiserum was directed absorbed varying amounts of the antibody, and rendered less available to react with the Cr^51 labelled target cells which were added subsequently. The concentration of antibody used was extremely critical to the sensitivity of the test. The antisera to TL or Thy-1 (0) and the cells being tested for their antigen content were incubated together at 4° C. for 90 minutes. After this incubation 50,000 target cells in a volume of […] were added and the incubation continued in the cold for an additional 30 minutes to permit the sensitization of the target cells by the remaining unabsorbed antibody. The plates were then centrifuged at 1,500 rpm for 10 minutes and the supernatant fluid removed. The pelleted cells were resuspended in 0.1 ml or RPMI 1640, containing 4% fresh rabbit serum as a source of complement, and incubated for 45 minutes at 37° C. The cells were then repelleted by centrifugation and a 0.075 ml aliquot of the supernatant fluid was counted in an automatic gamma spectrometer to determine the amount of Cr^51 released from the target cells. All assays were performed in duplicate and the results were expressed by calculating the number of cells required to reduce the relative cytotoxic index (RCI) to 0.5. The RCI was calculated as follows: [formula]

[1] = system: neuromuscular transmission; assay: Electromyographic assay of neuromuscular transmission in mice after intraperitoneal injection; type: in vivo; settings: for activity of the isolated fraction in producing neuromuscular block: QAE-Sephadex fractions, FIG. 3; for therapeutically effective amount: at least about; for dose producing a statistically significant (P < 0.001) decrement in the electromyographic response: 5 days after dose, supramaximal nerve stimulation 50 impulses per second; for mean decrement: height of tenth muscle action potential as % of the first: 5 days after doses above threshold, controls 94 ± 2%; for dose range at which active: test not stated
Method: To determine the neuromuscular action of Thymin I and Thymin II, the electromyographic response of mice 5 days after various doses of Thymin I or Thymin II is summarized in FIG. 4. Bovine serum albumin (0.5 mg/ml, 0.9% saline) was used as a protein stabilizer and controls were injected with the solvent alone.
In 15 control mice sampled at 75 sites the height of the tenth muscle action potential was 94 ± 2% (mean ± s.e.m.) of the height of the first. The mean values and s.e.m. (vertical bars) are shown for groups of 4-10 mice given various doses of Thymin I(o) and Thymin II (.quadrature.). Statistical significances of differences from the controls were calculated by Student's t-test and are shown by solid symbols (P < 0.001 ), half solid symbols (0.05 > P < 0.001) and open symbols (P > 0.05).
Mice were given 100 ng of Thymin I or solvent and five mice from each group were tested at various times. With supramaximal nerve stimulation at 50 impulses per second the height of the tenth muscle action potential was expressed as a percentage of the first. This change was calculated for five points in each of five to ten mice from each group. For each time point the change in Thymin-treated mice was expressed as a percentage of the change in solvent-treated control mice and the statistical significance of the difference was assessed by Student's t-test. A statistically significant (P < 0.001) abnormality in the electromyogram was first evident at 18 hours, was maximal at 24 hours and persisted through 5 days.
To make the determinations described in FIGS. 4 and 5, extracts were injected into test animals and neuromuscular transmission was studied after an interval of one to five days. Initial 100 g guinea pigs were injected intraperitoneally; neuromuscular transmission was studied in vitro with a preparation of the phrenic nerve and hemidiaphragm. Subsequently, 200 g rats were used; fractions were injected subcutaneously and neuromuscular transmission was assessed electromyographically. […] Female Swiss-Webster mice weighing 25-35 g were injected intraperitoneally, groups of five to ten mice being used to test each fraction. The animals were anesthetized with urethane and electromyography was performed as described. The muscle action potentials were recorded in each mouse following supramaximal nerve stimulation with 10 impulses at a rate of 50 per second. Five sites were sampled in each mouse and for each group of mice the mean standard deviation and s.e.m. were calculated for the change in the height of the muscle action, potential being expressed as a percentage of the height of the first impulse.
The statistical significance of differences found were assessed by student's t-test.

bone marrow cells = assay: Direct cytotoxic test (trypan blue) for TL induction, bone marrow cells; type: cell-based, mouse
Method: as §1
(§2) Bone marrow and spleen cells were obtained by flotation in BSA gradients similar to those used by Komuro and Boyse (Lancet, 10, 39, 1964). These cells were tested for their susceptibility to anti TL and Thy-1(0) antibodies in a direct cytotoxicity test, using the uptake of trypan blue as a measure of cell death.
(§3) The actual number of cells induced could not be determined in the cytotoxic inhibition assay since this test is a measure of the total antigen present in the culture. […] However, unless sufficient numbers of such cells are present they cannot be detected because of a substantial background usually found in such tests. […]

spleen cells = assay: Direct cytotoxic test (trypan blue) for TL induction, spleen cells; type: cell-based, mouse; settings: 20 ng/ml, 2 hours, least dense BSA gradient fraction
Method: as §1, §2, §3

[2] = single injection of 100 ng, mice

Sequence	concentration of maximal activity (mouse bone marrow cells)	lowest concentration at which active (mouse bone marrow cells)	absorption of antibodies directed against TL or Thy-1 by treated cells (mouse bone marrow cells)	activity of the isolated fraction in producing neuromuscular block [1]	therapeutically effective amount [1]	dose producing a statistically significant (P < 0.001) decrement in the electromyographic response ([1]; mice)	mean decrement: height of tenth muscle action potential as % of the first ([1]; mice)	dose range at which active [1]	concentration giving maximal induction of TL and Thy-1 antigens (mouse bone marrow cells; bone marrow cells)	lowest concentration producing a measurable response (induction of TL and Thy-1 antigens) (mouse bone marrow cells; bone marrow cells)	relative potency in inducing TL and Thy-1 antigens (mouse bone marrow cells; compared with Thymin II)	bone marrow cells killed by anti TL antiserum plus complement (bone marrow cells; 20 ng/ml, 2 hours, least dense BSA gradient fraction)	highest value of cells killed by anti TL antiserum plus complement (bone marrow cells; other experiments, tissue not stated)	spleen cells killed by anti TL antiserum plus complement (spleen cells)	relative activity on neuromuscular transmission ([1]; compared with Thymin II)	time at which the electromyogram abnormality was maximal [1, 2]	time through which the electromyogram abnormality persisted [1, 2]	time at which the electromyogram abnormality was first evident ([1]; single injection of 100 ng, mice, P < 0.001)
SQFLEDPSVLTKEKLKSELVANNVTLPAGEQRKDVYVQLYLQTLTAVKR [Thymin II, H2 n--ser--gln--phe--leu--glu--asp--pro--ser--val--leu--thr--lys--glu--lys--leu--lys--ser--glu--leu--val--ala--asn--asn--val--thr--leu--pro--ala--gly--glu--gln--arg--lys--asp--val--tyr--val--gln--leu--tyr--leu--gln--thr--leu--thr--ala--val--lys--arg--cooh]	0.2-2 nanogram per mll	20 picogram per mll	absorbed antibodies	active	at least 1.3 μg/kg of body weight	above 32 ng/mouse	82%	about 0.1 mg/kg of body weight										
GQFLEDPSVLTKEKLKSELVANNVTLPAGEQRKDVYVQLYLQHLTAVKR [Thymin I, H2 n--gly--gln--phe--leu--glu--asp--pro--ser--val--leu--thr--lys--glu--lys--leu--lys--ser--glu--leu--val--ala--asn--asn--val--thr--leu--pro--ala--gly--glu--gln--arg--lys--asp--val--tyr--val--gln--leu--tyr--leu--gln--his--leu--thr--ala--val--lys--arg--cooh]	0.2-2 nanogram per mll	20 picogram per mll	absorbed antibodies	active	at least 0.20 μg/kg of body weight	above 4 ng/mouse	84%	about 0.1 mg/kg of body weight	2 ng/mL	20 pg/mL	slightly more potent	21%	≤ 28%	18%	slightly more active	24 h	5 days	18 h
